Experimental data from patent US20180201592A1, “2-AMINO-1,3,4-THIADIAZINE AND 2-AMINO-1,3,4-OXADIAZINE BASED ANTIFUNGAL AGENTS” (F2G Limited, priority 2015, published 2018).
Converted amounts (≈) assume the structure as drawn. Read-outs that look alike come from different tables or passages of the source.

Experiments:
C. tropicalis = experiment: Minimum inhibitory concentration, RPMI medium; assay type: cell-based; settings: banded MIC grade
Procedure, shortened: (§1)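 Incubated at 35° C for 24-48 hrs in RPMI 1640 with twofold water dilutions of compound (from 5 mg/mL stock in DMSO); absorbance at 485 nm indicated growth.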

C. krusei = experiment: Minimum inhibitory concentration, RPMI medium; assay type: cell-based; settings: banded MIC grade
Procedure, shortened: as §1

C. glabrata = experiment: Minimum inhibitory concentration, RPMI medium; assay type: cell-based; settings: banded MIC grade
Procedure, shortened: as §1

A. flavus = experiment: Minimum inhibitory concentration, RPMI medium; assay type: cell-based; settings: banded MIC grade
Procedure, shortened: as §1

C. parapsilosis = experiment: Minimum inhibitory concentration, RPMI medium; assay type: cell-based; settings: banded MIC grade; for MIC: Lodderomyces parapsilosis, RPMI media
Procedure, shortened: as §1

A. terreus 49 [1] = experiment: Minimum inhibitory concentration, RPMI medium; assay type: cell-based; settings: banded MIC grade
Procedure, shortened: as §1

C. albicans = experiment: Minimum inhibitory concentration, RPMI medium; assay type: cell-based; settings: banded MIC grade; for MIC: Candida albicans, RPMI media
Procedure, shortened: as §1

A. niger = experiment: Minimum inhibitory concentration, RPMI medium; assay type: cell-based; settings: banded MIC grade
Procedure, shortened: as §1

A. terreus = experiment: Minimum inhibitory concentration, RPMI medium; assay type: cell-based; settings: banded MIC grade
Procedure, shortened: as §1

A. fumigatus 210 [2] = experiment: Minimum inhibitory concentration, YAG medium; assay type: cell-based, Aspergillus fumigatus; settings: banded MIC grade
Procedure, shortened: (§2)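 Growth was read as optical density at 485 nm after 24 hrs at 35° C, and the MIC taken as the lowest drug concentration cutting growth by >70% relative to drug-free wells. Plates held doubling dilutions (50-0.05 mg/L) with 1-2×10^4 cfu/mL spores in YAG medium.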

A. fumigatus 210 [3] = experiment: Minimum inhibitory concentration, RPMI medium; assay type: cell-based; settings: banded MIC grade
Description: (§3) Between 1 and 5 mgs of compound were accurately weighed out into a sterile Eppendorf tube. The compound was dissolved in DMSO to give a solution containing 5 mg/mL. Tubes were stored at −20° C. until required.
(§4) On the day of testing thawed solutions were vortex mixed to ensure homogeneity. 30 μL of solution was removed and added to 570 μL of sterile water in a separate sterile Eppendorf. The thoroughly mixed solution was used to prepare a series of doubling dilutions in water, in a deep well plate. Thirteen replicate plates were prepared using a Minitrak by aspirating 20 μL from each well into eleven clear polystyrene 96 well plates.
(§5) Assays were also performed in RPMI medium (Roswell Park Memorial Media 1640). To perform MIC tests in this medium, dilutions of compounds are prepared in microtitre plates as described above. Fungal strains to be tested are grown and harvested in an identical manner to that described above, and each organism suspension was diluted in RPMI medium, typically containing 2% glucose and 0.135 M MOPS buffer (pH 7.0) to 0.5-2×10^4cfu/mL, rather than in YAG medium. 80 μL of an organism suspension was added to each well of the plate containing drug dilutions.
(§6) This produced MIC plates with a drug range 50-0.05 mg/L and organism inocula of 1-2×10^4 cfu/mL. All plates were incubated for 24-48 hrs at 35° C. Growth was assessed by monitoring the optical density at 485 nm for each well. The MIC of a compound is the lowest drug concentration that inhibits growth of an organism by >80% compared with a drug free control. The following organisms were tested: C. albicans, C. parapsilosis, C. tropicalis, C. glabrata, C. krusei, A. niger, A. fumigatus, A. terreus, A. flavus, A. terreus 49, and A. fumigatus 210.

A. fumigatus = experiment: Minimum inhibitory concentration, RPMI medium; assay type: cell-based; settings: banded MIC grade
Description: as §3, §4, §5, §6

A. terreus 49 [4] = experiment: Minimum inhibitory concentration, YAG medium; assay type: cell-based, Aspergillus terreus; settings: banded MIC grade
Procedure, shortened: (§7)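 Twofold aqueous dilution series, prepared from a DMSO stock (5 mg/mL), were inoculated with Aspergillus spp. spores; incubation lasted 24 hrs at 35° C before OD 485 nm readings.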

Aspergillus fumigatus = experiment: Minimum inhibitory concentration, YAG medium; assay type: cell-based; settings: banded MIC grade
Procedure, shortened: as §2

Aspergillus niger = experiment: Minimum inhibitory concentration, YAG medium; assay type: cell-based; settings: banded MIC grade
Procedure, shortened: as §7

Aspergillus flavus = experiment: Minimum inhibitory concentration, YAG medium; assay type: cell-based; settings: banded MIC grade
Procedure, shortened: as §7

Aspergillus terreus = experiment: Minimum inhibitory concentration, YAG medium; assay type: cell-based; settings: banded MIC grade
Procedure, shortened: as §7

| Compound | MIC grade, C. TROPICALIS, RPMI media (C. tropicalis) | MIC grade, C. KRUSEI, RPMI media (C. krusei) | MIC grade, C. GLABRATA, RPMI media (C. glabrata) | MIC grade, A. FLAVUS, RPMI media (A. flavus) | MIC grade, C. PARAPSILOSIS, RPMI media (C. parapsilosis) | MIC grade, A. TERREUS 49, RPMI media (A. terreus 49 [1]) | MIC grade, C. ALBICANS, RPMI media (C. albicans) | MIC grade, A. NIGER, RPMI media (A. niger) | MIC grade, A. TERREUS, RPMI media (A. terreus) | MIC grade, A. FUMIGATUS 210, YAG media (A. fumigatus 210 [2]) | MIC grade, A. FUMIGATUS 210, RPMI media (A. fumigatus 210 [3]) | MIC grade, A. FUMIGATUS, RPMI media (A. fumigatus) | MIC grade, A. TERREUS 49, YAG media (A. terreus 49 [4]) | MIC grade, A. FUMIGATUS, YAG media (Aspergillus fumigatus) | MIC grade, A. NIGER, YAG media (Aspergillus niger) | MIC grade, A. FLAVUS, YAG media (Aspergillus flavus) | MIC grade, A. TERREUS, YAG media (Aspergillus terreus) | other results |
| --- | --- | --- | --- | --- | --- | --- | --- | --- | --- | --- | --- | --- | --- | --- | --- | --- | --- | --- |
| NC1=NN=C(CCOCCOc2ccccc2)CS1 | 3 (3: 1-5 mg/L) | 4 (4: <1 mg/L) | 2 (2: 5-20 mg/L) | 3 (3: 1-5 mg/L) | 4 (4: <1 mg/L) | 4 (4: <1 mg/L) | 3 (3: 1-5 mg/L) | 3 (3: 1-5 mg/L) | 4 (4: <1 mg/L) | 4 (4: <0.2 mg/L) | 3 (3: 1-5 mg/L) | 3 (3: 1-5 mg/L) | 4 (4: <0.2 mg/L) | 4 (4: <0.2 mg/L) | 4 (4: <0.2 mg/L) | 4 (4: <0.2 mg/L) | 4 (4: <0.2 mg/L) |  |
| NC1=NN=C(CCCCOCc2ccccc2CCc2ccccc2)CS1 | 2 (2: 5-20 mg/L) | 2 (2: 5-20 mg/L) | 1 (1: ≥20 mg/L) | 1 (1: ≥20 mg/L) | 2 (2: 5-20 mg/L) | 2 (2: 5-20 mg/L) | 2 (2: 5-20 mg/L) | 1 (1: ≥20 mg/L) | 2 (2: 5-20 mg/L) | 1 (1: ≥5 mg/L) | 1 (1: ≥20 mg/L) | 1 (1: ≥20 mg/L) | 1 (1: ≥5 mg/L) | 1 (1: ≥5 mg/L) | 1 (1: ≥5 mg/L) | 2 (2: 1-5 mg/L) | 2 (2: 1-5 mg/L) |  |
| NC1=NN=C(CCCCOCc2cc(Cl)cc(Cl)c2)CS1 | 2 (2: 5-20 mg/L) | 2 (2: 5-20 mg/L) | 2 (2: 5-20 mg/L) | 2 (2: 5-20 mg/L) | 3 (3: 1-5 mg/L) | 2 (2: 5-20 mg/L) | 2 (2: 5-20 mg/L) | 2 (2: 5-20 mg/L) | 2 (2: 5-20 mg/L) | 2 (2: 1-5 mg/L) | 1 (1: ≥20 mg/L) | 2 (2: 5-20 mg/L) | 3 (3: 0.2-1 mg/L) | 3 (3: 0.2-1 mg/L) | 3 (3: 0.2-1 mg/L) | 4 (4: <0.2 mg/L) | 3 (3: 0.2-1 mg/L) |  |
| NC1=NN=C(c2ccccc2)CS1 [5-phenyl-6~{H}-1,3,4-thiadiazin-2-amine] | 1 (1: ≥20 mg/L) |  |  |  | 1 (1: ≥20 mg/L) |  | 1 (1: ≥20 mg/L) |  |  | 3 (3: 0.2-1 mg/L) |  |  | 3 (3: 0.2-1 mg/L) | 3 (3: 0.2-1 mg/L) | 3 (3: 0.2-1 mg/L) | 3 (3: 0.2-1 mg/L) | 3 (3: 0.2-1 mg/L) |  |
| CCOC(=O)c1ccc(C2=CSC(N)=NN2C)cc1 [ethyl 4-(2-amino-4-methyl-1,3,4-thiadiazin-5-yl)benzoate] |  |  |  |  |  |  |  |  |  |  |  |  |  |  |  |  |  | MIC (C. tropicalis; Candida tropicalis, RPMI media): 1 to 5 µg/mL (≈ 3.61 to 18 µM); MIC (C. parapsilosis; read-out: MIC grade C. PARAPSILOSIS): < 1 µg/mL; MIC (C. parapsilosis; read-out: MIC grade, C. PARAPSILOSIS, RPMI media): < 1 µg/mL; MIC (C. albicans; read-out: MIC grade C. ALBICANS): < 1 µg/mL; MIC (C. albicans; read-out: MIC grade, C. ALBICANS, RPMI media): 1 to 5 µg/mL (≈ 3.61 to 18 µM); MIC (A. fumigatus 210 [2]; Aspergillus fumigatus, 210, YAG media): < 0.2 µg/mL; MIC (A. terreus 49 [4]; Aspergillus terreus, 49, YAG media): 0.2 to 1 µg/mL (≈ 0.721 to 3.61 µM); MIC (Aspergillus fumigatus; Aspergillus fumigatus, YAG media): < 0.2 µg/mL; MIC (Aspergillus niger; Aspergillus niger, YAG media): 0.2 to 1 µg/mL (≈ 0.721 to 3.61 µM); MIC (Aspergillus flavus; Aspergillus flavus, YAG media): < 0.2 µg/mL; MIC (Aspergillus terreus; Aspergillus terreus, YAG media): < 0.2 µg/mL |
